Data reported in US11207313B2, “Pharmaceutical composition” (Novartis AG, priority 2017, dated 2021).

Columns and labels:
Format in all cases: physicochemical
[1] = Precipitation of Compound A under dispersion in pH 6.5 buffer (microscope); details: room temperature, after at least 6 hours, all developed formulations
Description: Then, the precipitation of Compound A in each formulation was controlled by microscope under dispersion in pH 6.5 buffer at room temperature.

[2] = Biopharmaceutics classification and water solubility statement
Description: The design of a pharmaceutical composition, a pharmaceutical dosage form, as well as a commercially viable process to prepare the pharmaceutical composition, for a non-bile FXR agonist, such as 2-[(1R,3R,5S)-3-({5-cyclopropyl-3-[2-(trifluoromethoxy)phenyl]-1,2-oxazol-4-yl}methoxy)-8-azabicyclo[3.2.1]octan-8-yl]-4-fluoro-1,3-benzothiazole-6-carboxylic acid, or a pharmaceutically acceptable salt thereof, is especially challenging. […] For example, due to its very high potency a low dosage is needed, generating unwanted formulation issues such as content uniformity, and additional handling restrictions on a large manufacturing scale. […] Accordingly, a suitable and robust solid pharmaceutical composition overcoming the above problems needs to be developed.

[3] = Solubility of Compound A in formulations and precipitation on storage at room temperature

O=C(O)c1cc(F)c2nc(N3C4CCC3CC(OCc3c(-c5ccccc5OC(F)(F)F)noc3C3CC3)C4)sc2c1 [Compound A, 2-[(1R,3R,5S)-3-({5-cyclopropyl-3-[2-(trifluoromethoxy)phenyl]-1,2-oxazol-4-yl}methoxy)-8-azabicyclo[3.2.1]octan-8-yl]-4-fluoro-1,3-benzothiazole-6-carboxylic acid]
Precipitation of Compound A under dispersion [1]: No precipitation
Biopharmaceutics classification system class [2]: class IV
Water solubility [2]: low water solubility
Precipitation after storage ([3]; 7 days storage at room temperature, all formulations): no precipitation was observed
Solubility of Compound A in formulations ([3]; all formulations of Tables 1 to 3 combined with Compound A): fully soluble
